Test results: patent US20170151219A1, “ANTIPERSPIRANT AGENT” (OSAKA UNIVERSITY, priority 2014, published 2017)

Columns and labels:
[1] = system: human; assay: Observation of skin symptom after oral administration of mTOR inhibitor; assay type: in vivo; conditions: orally 10 mg per day, FIG. 3
Protocol: An influence on a skin exerted by a mTOR inhibitor was observed.
Specifically, a mTOR inhibitor (everolimus (Afinitor (Registered Trademark)) was orally administered to a human by 10 mg per day, and a symptom appeared on the skin was observed.
Specifically, (a) of FIG. 3 is a photograph showing a state of the skin before the mTOR inhibitor is administered, and (b) of FIG. 3 is a photograph showing a state of the skin after the mTOR inhibitor is administered.

[2] = system: patient of renal angiomyolipoma in consequence of tuberous sclerosis; assay: Amount of sweating measured with local perspiration meter during and after oral mTOR inhibitor; assay type: in vivo, human; conditions: FIG. 4
Protocol: To a patient of renal angiomyolipoma in consequence of tuberous sclerosis, the mTOR inhibitor (everolimus (Afinitor (Registered Trademark))) was orally administered by 10 mg per day for approximately four months, and then the oral administration of the mTOR inhibitor was withdrawn.
During the period, after the oral administration of the mTOR inhibitor was started, an amount of sweating on a normal skin of the patient was measured with time and an amount of sweating on a skin of the patient on which a symptom of vitiligo appeared was measured with time.
The amount of sweating was measured with use of a local perspiration meter (quantitative axon reflex sweat amount measuring device) manufactured by Skinos Giken, and a specific measuring method was in conformity to a protocol attached to the device.

[3] = orally 10 mg per day for approximately four months

`CO[C@H]1C[C@@H]2CC[C@@H](C)[C@@](O)(O2)C(=O)C(=O)N2CCCC[C@H]2C(=O)O[C@H]([C@H](C)C[C@@H]2CC[C@@H](OCCO)[C@H](OC)C2)CC(=O)[C@H](C)/C=C(\C)[C@@H](O)[C@@H](OC)C(=O)[C@H](C)C[C@H](C)/C=C/C=C/C=C/1C` [everolimus] was tested, and the “symptom appeared on the skin” value [1] was “dry skin”, the “amounts of sweating after withdrawal of administration” value ([2]; normal skin and vitiligo skin, after withdrawal of oral administration) was “restored” and the “amount of sweating on the normal skin” value [2, 3] was “reduced”. For the same molecule, the “amount of sweating on the skin showing the symptom of vitiligo” value [2, 3] was “reduced”.
